Measured values reported in patent US11180530B2, “Salt of phenylpropionamide derivative and preparation method therefor” (priority 2017, dated 2021).
Structures can show the parent of a compound that is named as a salt. Where two headings read alike, the source gives them in different places. Where a SMILES comes first, the peptide text is derived from it. [ ]: non-standard residue; d: D form. The star is where a group is joined. Gly(N-(2R-Ph-propyl)) = C[C@@H](CNCC(=O)O)c1ccccc1; Piperidin1yl(4-NH2,4-COOH) = NC1(C(=O)O)CCN(*)CC1

Key:
[1] = format: physicochemical
Description: Samples of the compound represented by formula (I) and acetate, hydrochloride, citrate and phosphate of the compound represented by formula (I) were respectively placed open and evenly spread, so that the stability of the samples were investigated under the conditions of room temperature, heating (40° C., 60° C.), illumination (4500Lux) and high humidity (RH75% and RH90%). The sampling period is 20 days.

[2] = format: physicochemical; remark: listed apart in the source
Description: Samples of acetate, hydrochloride, citrate and phosphate of the compound represented by formula (I) were subjected to a long-term accelerated stability investigation for 6 months under dark and sealed conditions (the inner package is a medicinal low-density polyethylene composite film and the outer package is aluminum foil), humidity (60% RH), temperature (4° C., 25° C.) and with/without nitrogen protection.

[3] = 25° C., 60% RH, nitrogen protection, 1 month
[4] = 25° C., 60% RH, nitrogen protection, 3 months
[5] = 25° C., 60% RH, nitrogen protection, 6 months
[6] = 25° C., 60% RH, nitrogen protection, initial

With `CC(C)C[C@@H](NC(=O)[C@@H](Cc1ccccc1)NC(=O)CNC[C@H](C)c1ccccc1)C(=O)N[C@H](CCCCN)C(=O)N1CCC(N)(C(=O)O)CC1` [Acetate (1:2)] (H-[Gly(N-(2R-Ph-propyl))][dF][dL][dK]-{Piperidin1yl(4-NH2,4-COOH)}) the “Stability (conclusion in words)” value ([1]; high temperature) was “poor stability” and the “acetate (radical) content by ion chromatography” value ([1]; high temperature, after the 20-day experiment) was “greatly reduced”.
With `CC(C)C[C@@H](NC(=O)[C@@H](Cc1ccccc1)NC(=O)CNC[C@H](C)c1ccccc1)C(=O)N[C@H](CCCCN)C(=O)N1CCC(N)(C(=O)O)CC1` [Citrate (1:2)] (H-[Gly(N-(2R-Ph-propyl))][dF][dL][dK]-{Piperidin1yl(4-NH2,4-COOH)}) the “Stability (conclusion in words)” value ([1]; high temperature of 60° C.) was “degraded greatly”.
`CC(C)C[C@@H](NC(=O)[C@@H](Cc1ccccc1)NC(=O)CNC[C@H](C)c1ccccc1)C(=O)N[C@H](CCCCN)C(=O)N1CCC(N)(C(=O)O)CC1` [Embodiment 2, 4-amino-1-((2R,5R,8R,14R)-2-(4-aminobutyl)-8-benzyl-5-isobutyl-4,7,10-trioxo-14-phenyl-3,6,9,12-tetraazapentadecan-1-acyl)piperidine-4-carboxylic acid] (H-[Gly(N-(2R-Ph-propyl))][dF][dL][dK]-{Piperidin1yl(4-NH2,4-COOH)}) showed a Purity % ([1]; 25° C., 5 days) of 97.64%, a Purity % ([1]; 25° C., 10 days) of 97.64% and a Purity % ([1]; 25° C., 20 days) of 97.63%. It also gave a Purity % ([1]; 40° C., 5 days) of 96.23%, a Purity % ([1]; 4500 Lux, 0 days (initial)) of 97.65% and a Purity % ([1]; 4500 Lux, 5 days) of 96.99%. It also gave a Purity % ([1]; 4500 Lux, 10 days) of 96.68% and a Purity % ([1]; 4500 Lux, 20 days) of 96.72%.
With `CC(C)C[C@@H](NC(=O)[C@@H](Cc1ccccc1)NC(=O)CNC[C@H](C)c1ccccc1)C(=O)N[C@H](CCCCN)C(=O)N1CCC(N)(C(=O)O)CC1` [Embodiment 3, 4-amino-1-((2R,5R,8R,14R)-2-(4-aminobutyl)-8-benzyl-5-isobutyl-4,7,10-trioxo-14-phenyl-3,6,9,12-tetraazapentadecan-1-acyl)piperidine-4-carboxylic acid] (H-[Gly(N-(2R-Ph-propyl))][dF][dL][dK]-{Piperidin1yl(4-NH2,4-COOH)}) the Purity % ([2]; 4° C., 1 month) was 99.59%, the Purity % ([2]; 4° C., 3 months) was 99.58% and the Purity % ([2]; 4° C., 6 months) was 99.60%. The Purity % ([2]; 4° C., initial) was 99.59%, the Aspect [2, 3] was “White” and the Purity % [2, 3] was 99.58%. For the same compound, the Aspect [2, 4] was “White”, the Purity % [2, 4] was 99.51% and the Aspect [2, 5] was “White”. The Purity % [2, 5] was 99.54%, the Aspect [2, 6] was “White” and the Purity % [2, 6] was 99.59%. The Aspect ([2]; 25° C., 60% Rh, 1 month) was “White”, the Purity % ([2]; 25° C., 60% Rh, 1 month) was 99.62% and the Aspect ([2]; 25° C., 60% Rh, 3 months) was “White”. For the same compound, the Purity % ([2]; 25° C., 60% Rh, 3 months) was 99.61%, the Aspect ([2]; 25° C., 60% Rh, 6 months) was “White” and the Purity % ([2]; 25° C., 60% Rh, 6 months) was 99.57%. The Aspect ([2]; 25° C., 60% Rh, initial) was “White” and the Purity % ([2]; 25° C., 60% Rh, initial) was 99.59%.
`CC(C)C[C@@H](NC(=O)[C@@H](Cc1ccccc1)NC(=O)CNC[C@H](C)c1ccccc1)C(=O)N[C@H](CCCCN)C(=O)N1CCC(N)(C(=O)O)CC1` [Embodiment 4, 4-amino-1-((2R,5R,8R,14R)-2-(4-aminobutyl)-8-benzyl-5-isobutyl-4,7,10-trioxo-14-phenyl-3,6,9,12-tetraazapentadecan-1-acyl)piperidine-4-carboxylic acid] (H-[Gly(N-(2R-Ph-propyl))][dF][dL][dK]-{Piperidin1yl(4-NH2,4-COOH)}) showed a Purity % ([1]; 25° C., 5 days) of 97.56%, a Purity % ([1]; 25° C., 10 days) of 97.44% and a Purity % ([1]; 25° C., 20 days) of 97.28%. The Purity % ([1]; 40° C., 5 days) was 86.31%, the Purity % ([1]; 4500 Lux, 0 days (initial)) was 97.70% and the Purity % ([1]; 4500 Lux, 5 days) was 95.83%. It also gave a Purity % ([1]; 4500 Lux, 10 days) of 94.91% and a Purity % ([1]; 4500 Lux, 20 days) of 92.17%.
In the case of `CC(C)C[C@@H](NC(=O)[C@@H](Cc1ccccc1)NC(=O)CNC[C@H](C)c1ccccc1)C(=O)N[C@H](CCCCN)C(=O)N1CCC(N)(C(=O)O)CC1` [Embodiment 6, 4-amino-1-((2R,5R,8R,14R)-2-(4-aminobutyl)-8-benzyl-5-isobutyl-4,7,10-trioxo-14-phenyl-3,6,9,12-tetraazapentadecan-1-acyl)piperidine-4-carboxylic acid] (H-[Gly(N-(2R-Ph-propyl))][dF][dL][dK]-{Piperidin1yl(4-NH2,4-COOH)}), the Purity % ([1]; 25° C., 5 days) is reported as 99.27%, the Purity % ([1]; 25° C., 10 days) is reported as 99.27% and the Purity % ([1]; 25° C., 20 days) is reported as 99.30%. For the same compound, the Purity % ([1]; 40° C., 5 days) was 99.03%, the Purity % ([1]; 4500 Lux, 0 days (initial)) was 99.32% and the Purity % ([1]; 4500 Lux, 5 days) was 97.13%. It also gave a Purity % ([1]; 4500 Lux, 10 days) of 95.32% and a Purity % ([1]; 4500 Lux, 20 days) of 92.39%.
`CC(C)C[C@@H](NC(=O)[C@@H](Cc1ccccc1)NC(=O)CNC[C@H](C)c1ccccc1)C(=O)N[C@H](CCCCN)C(=O)N1CCC(N)(C(=O)O)CC1` [Embodiment 11, 4-amino-1-((2R,5R,8R,14R)-2-(4-aminobutyl)-8-benzyl-5-isobutyl-4,7,10-trioxo-14-phenyl-3,6,9,12-tetraazapentadecan-1-acyl)piperidine-4-carboxylic acid] (H-[Gly(N-(2R-Ph-propyl))][dF][dL][dK]-{Piperidin1yl(4-NH2,4-COOH)}) gave a Purity % ([2]; 4° C., 1 month) of 99.49%, a Purity % ([2]; 4° C., 3 months) of 99.56% and a Purity % ([2]; 4° C., 6 months) of 99.57%. It also gave a Purity % ([2]; 4° C., initial) of 99.50%, a Purity % [2, 3] of 99.50% and a Purity % [2, 4] of 99.51%. The Purity % [2, 5] was 99.51%, the Purity % [2, 6] was 99.50% and the Purity % ([2]; 25° C., 60% Rh, 1 month) was 99.50%. The Purity % ([2]; 25° C., 60% Rh, 3 months) was 99.52%, the Purity % ([2]; 25° C., 60% Rh, 6 months) was 99.5% and the Purity % ([2]; 25° C., 60% Rh, initial) was 99.50%.
Compound `CC(C)C[C@@H](NC(=O)[C@@H](Cc1ccccc1)NC(=O)CNC[C@H](C)c1ccccc1)C(=O)N[C@H](CCCCN)C(=O)N1CCC(N)(C(=O)O)CC1` [Embodiment 12, 4-amino-1-((2R,5R,8R,14R)-2-(4-aminobutyl)-8-benzyl-5-isobutyl-4,7,10-trioxo-14-phenyl-3,6,9,12-tetraazapentadecan-1-acyl)piperidine-4-carboxylic acid] (H-[Gly(N-(2R-Ph-propyl))][dF][dL][dK]-{Piperidin1yl(4-NH2,4-COOH)}) has a Purity % ([1]; 25° C., 5 days) of 96.93%, a Purity % ([1]; 25° C., 10 days) of 96.80% and a Purity % ([1]; 25° C., 20 days) of 96.97%. For the same compound, the Purity % ([1]; 4500 Lux, 0 days (initial)) was 97.04%, the Purity % ([1]; 4500 Lux, 5 days) was 96.65% and the Purity % ([1]; 4500 Lux, 10 days) was 96.63%. It also gave a Purity % ([1]; 4500 Lux, 20 days) of 96.77%.
`CC(C)C[C@@H](NC(=O)[C@@H](Cc1ccccc1)NC(=O)CNC[C@H](C)c1ccccc1)C(=O)N[C@H](CCCCN)C(=O)N1CCC(N)(C(=O)O)CC1` [Embodiment 13, 4-amino-1-((2R,5R,8R,14R)-2-(4-aminobutyl)-8-benzyl-5-isobutyl-4,7,10-trioxo-14-phenyl-3,6,9,12-tetraazapentadecan-1-acyl)piperidine-4-carboxylic acid] (H-[Gly(N-(2R-Ph-propyl))][dF][dL][dK]-{Piperidin1yl(4-NH2,4-COOH)}) gave a Purity % ([1]; 4500 Lux, 0 days (initial)) of 97.39%, a Purity % ([1]; 4500 Lux, 5 days) of 97.29% and a Purity % ([1]; 4500 Lux, 10 days) of 97.28%. It also gave a Purity % ([1]; 4500 Lux, 20 days) of 97.28%.
Compound `CC(C)C[C@@H](NC(=O)[C@@H](Cc1ccccc1)NC(=O)CNC[C@H](C)c1ccccc1)C(=O)N[C@H](CCCCN)C(=O)N1CCC(N)(C(=O)O)CC1` [Embodiment 14, 4-amino-1-((2R,5R,8R,14R)-2-(4-aminobutyl)-8-benzyl-5-isobutyl-4,7,10-trioxo-14-phenyl-3,6,9,12-tetraazapentadecan-1-acyl)piperidine-4-carboxylic acid] (H-[Gly(N-(2R-Ph-propyl))][dF][dL][dK]-{Piperidin1yl(4-NH2,4-COOH)}) has a Purity % ([1]; 4500 Lux, 0 days (initial)) of 99.19%, a Purity % ([1]; 4500 Lux, 5 days) of 99.15% and a Purity % ([1]; 4500 Lux, 10 days) of 99.12%. It also gave a Purity % ([1]; 4500 Lux, 20 days) of 99.12%.
With `CC(C)C[C@@H](NC(=O)[C@@H](Cc1ccccc1)NC(=O)CNC[C@H](C)c1ccccc1)C(=O)N[C@H](CCCCN)C(=O)N1CCC(N)(C(=O)O)CC1` [hydrochloride (1:2)] (H-[Gly(N-(2R-Ph-propyl))][dF][dL][dK]-{Piperidin1yl(4-NH2,4-COOH)}) the “Stability (conclusion in words)” value ([1]; illumination and high temperature, 20 days) was “slightly degraded”.
